The results in this text go back to paper PMC12036875, “Mitochondria-targeting natural product rhein conjugated with dichloroacetate as the dual inhibitor of glycolysis and oxidative phosphorylation to off energize cancer cells and induce ROS storm” (Theranostics, 2025).

Structures are written as SMILES.

One assay deals with T1, PDK1 (Homo sapiens, UniProt O15530).
T1 construct: purchased Promega Biotech Co., Ltd (USA)
T1 sequence (O15530 1-556): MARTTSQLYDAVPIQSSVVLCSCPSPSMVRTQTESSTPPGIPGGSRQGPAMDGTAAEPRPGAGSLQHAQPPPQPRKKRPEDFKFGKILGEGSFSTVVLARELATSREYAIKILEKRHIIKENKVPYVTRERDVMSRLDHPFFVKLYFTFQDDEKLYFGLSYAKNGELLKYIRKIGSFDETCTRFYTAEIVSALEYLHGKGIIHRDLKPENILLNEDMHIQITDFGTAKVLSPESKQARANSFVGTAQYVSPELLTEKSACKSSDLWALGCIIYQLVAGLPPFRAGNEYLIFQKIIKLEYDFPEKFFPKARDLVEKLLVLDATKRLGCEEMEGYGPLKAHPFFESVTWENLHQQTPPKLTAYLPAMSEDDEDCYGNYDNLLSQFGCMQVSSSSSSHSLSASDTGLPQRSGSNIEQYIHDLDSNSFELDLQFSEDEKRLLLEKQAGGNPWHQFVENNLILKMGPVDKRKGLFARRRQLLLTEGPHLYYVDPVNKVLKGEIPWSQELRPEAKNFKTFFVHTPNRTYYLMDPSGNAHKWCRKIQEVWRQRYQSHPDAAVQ
In words: PDK1 kinase activity assay (ADP-Glo). It counts as biochemical. Conditions: 0.08, 0.4, 2 μM; 30 min pre-incubation; effect of Rhein-DCA at 2 μM. As to the method: The elevated glycolytic metabolism in cancer cells would be blocked when the activity of the gate enzyme PDH was resumed through inhibiting overexpression of PDK1, followed by a decrease in lactate and energy production (Figure 2A). ADP-Glo^TM Kinase assay was initially employed to investigate the potential of Rhein-DCA conjugate to suppress PDK1 activity in vitro. PDK1 were separately incubated with rhein, DCA, and Rhein-DCA conjugate for 30 min for better binding, then the enzymatic substrate was added to the mixture to initiate the reaction. Finally, the luminescent signal representing PDK1 activity was recorded once the detection procedures were completed. More detailed experimental information was presented in the supporting information.
The inhibitory effect of PDK1 kinase was evaluated with the […] kinase assay. Firstly, PDK1 enzyme, PDK tide, ATP, and indicated drugs (dissolved in DMSO) were dissolved in kinase buffer. Then, 5 μL of compounds (rhein, DCA and Rhein-DCA) with diverse concentrations and 10 μL of PDK1 enzyme were dispensed to the 96-well plate and incubated for 30 min at room temperature. Next, 10 μL of PDK tide/ATP mixture was added and incubated at room temperature for 60 min. Finally, to halt the reaction and deplete the remaining ATP, 25 μL of ADP-Glo™ reagent was added to each well and incubated at room temperature for 40 min. 50 μL of kinase detection reagent was added and incubated at room temperature for another 30 min. Ultimately, the luminescence signal was recorded by multi-mode microplate reader (Integration time: 1 s). The concentrations of reagents employed in this assay were as follows: […]
Background: In ADP-Glo the light output rises with the ADP produced.

In the next assay the test system is 4T1 cells. Description: Oxygen consumption rate (Seahorse). Conditions: 6.25 μM, 24 h. It counts as cell-based, Mouse. An excerpt:
TMRE is a lipophilic cationic fluorescent probe (Ex = 550 nm, Em = 575 nm). The accumulation of TMRE within the mitochondria would reduce with the mitochondrial depolarization, resulting in a decrease in fluorescence intensity. […] The integrity of mitochondria is significant for mitochondrial bioenergy production. Given the influence of ETC, NADH dehydrogenase, ATP synthase and the decrease of Δψm, we speculated that the ATP production from OXPHOS would be hindered by Rhein-DCA conjugate. Mitochondrial bioenergetic processes of 4T1 cells was measured by oxygen consumption rate (OCR) to reflect the capability of OXPHOS.
The mitochondrial bioenergetics of 4T1 cells was investigated by Seahorse Extracellular Flux analyser. 4T1 cells were seeded in 24-well plates (Seahorse Bioscience) at a density of 2 × 10^4 cells per well and incubated for 24 h at 37 °C in 5% CO2 atmosphere. The cells were treated with indicated drugs at a concentration of 6.25 μM for 24 h. At the same time, XF sensor cartridges were hydrated overnight in a CO2-free environment. The cells were cultured in the incubator for 1 h at 37 °C without CO2 after washed with Seahorse XF assay medium. Three baseline measurements of OCR were detected with Seahorse XFe24 analyzer when the oligomycin (1.0 μM, ATP synthase complex inhibitor), FCCP (1.0 μM, ATP synthesis uncoupler […]) and the mixture of antimycin-A (1.0 μM, inhibitor of complex III) and rotenone (1.0 μM, inhibitor that prevents the transfer of electrons from the Fe-S center in complex I to ubiquinone) were sequentially injected for the detection of the oxygen consumption rate.

In a further assay the test system is 4T1 tumor tissue. Description: IHC of pPDHA1-Ser293 and IF of HMGB1 in tumor slices. It counts as in vivo, Balb/c mice. The settings on record: 20 mg/kg oral, 24 days; for pPDHA1-Ser293 protein level in tumor tissue (IHC): vs vehicle. An excerpt: The TAMs are the prominent components in the TEM and play a critical role in tumoral immunosuppression. Repolarization of protumor M2 phenotype into antitumor M1 phenotype is promising for malignant tumors. On the one hand, as a key metabolite fueling M2 polarization, lactate is very important in modulating the polarization state of macrophages within the tumor microenvironment. To verify that Rhein-DCA conjugate reprogrammed the metabolism of cells on solid tumors, we analyzed the expression of pPDHA1-Ser^293 protein in tumor tissues with immunohistochemical staining (IHC) (Figure 7A). […] The end product lactate of glycolysis decreased 20%, consistent with DCA's ability to reverse the Warburg effect. […] On the other hand, the ICD behavior of cancer cells also can activate TAMs into M1 polarization. Then, the release of HMGB1 was evaluated to assess the ICD effect in vivo with immunofluorescence staining (IF) (Figure 7C).
After 24 days, the mice were euthanized, and then tumors were excised to photographing and weighting. The tumors in each group were performed with TUNEL (green fluorescence) and H&E assay. In addition, immunohistochemical staining was conducted on the tumor tissue to determine the pPDHA1-Ser^293 protein level. Besides, immunofluorescence staining was used to detect the expression of HMGB1 protein in the tumor.

For `O=C(OCCOC(=O)C(Cl)Cl)c1cc(O)c2c(c1)C(=O)c1cccc(O)c1C2=O` [Rhein-DCA], the “PDK1 activity (luminescent signal)” value on PDK1 is reported as “dramatically decreased”. For the same molecule, in the assay on 4T1 cells, the “effect on OCR / cellular OXPHOS (basal respiration, ATP production, maximal respiration)” value is given as “complete disruption”. Besides, in the assay on 4T1 tumor tissue, the “HMGB1 localisation in tumor slices (IF)” value is recorded as “mostly appeared outside the nucleus with weak intensity” and the “pPDHA1-Ser293 protein level in tumor tissue (IHC)” value is listed as “down-expression”.
The matching figures for `O=C(O)C(Cl)Cl` [DCA, Dichloroacetate]: “did not exhibit obvious differences”, “minor effect”, “almost all of HMGB1 overlapped with nucleus” and “obvious down-expression”.
The like results for `O=C(O)c1cc(O)c2c(c1)C(=O)c1cccc(O)c1C2=O` [Rhein, 4,5-dihydroxyanthraquinone-2-carboxylic acid] were, in that order, “almost negligible”, “moderate effects”, “almost all of HMGB1 overlapped with nucleus” and “did not significantly alter”.
